Assay results taken from paper PMC10154249, “Unique progerin C-terminal peptide ameliorates Hutchinson–Gilford progeria syndrome phenotype by rescuing BUBR1” (Nature Aging, 2023).

Columns and labels:
HGADFN167 cells = test: SA-β-gal staining of HGADFN167 cells; type: cell-based, human
Experimental: SA-β-gal staining was performed as previously described. Cells were fixed in 0.5% glutaraldehyde for 15 min at room temperature, washed three times with PBS (pH 6.0) containing 1 mM MgCl2 and exposed overnight 37 °C to containing 1 mg ml^–1 5-bromo-4-chloro-3-indolyl-β-D-galactopyranoside (MCE, catalog no. HY-15934), 0.12 mM potassium ferrocyanide (Sigma, catalog no. P3289), 0.12 mM potassium ferricyanide (Sigma, catalog no. P8131) and 1 mM MgCl2 PBS buffer (pH 6.0). Cells were washed three times with H2O and observed under a microscope (OLYMPUS CKX53). SA-β-gal positive cells were quantified by investigators who were blinded to the identity of the analyzed cell.

Lmna^G609G/G609G mice = test: Survival (Kaplan–Meier) of Lmna^G609G/G609G mice; type: in vivo, mouse
Excerpt: All animal experiments were approved by the Ethics Committee of School of Life Sciences, Northeast Normal University, China (AP20191011) and carried out in accordance with the relevant guidelines: National Standards of the People’s Republic of China (GB/T 35892–2018), Laboratory Animal—Guideline for Ethical Review of Animal Welfare. We generated a mouse model (ICR background), carrying the Lmna^G609G using the BE4-Gam system. The protocols for the BE4-Gam system and microinjection of pronuclear-stage embryos have been described in detail previously[37],[38],[59]. Briefly, a mixture of BE4-Gam mRNA (200 ng μl^–1) and sgRNA-Lmna (30 ng μl^–1) was coinjected into the cytoplasm of pronuclear-stage embryos of the mouse. The injected embryos were transferred to embryo culture medium for 30–60 min, followed by transferring the injected embryos into the recipient mother. The embryos continued to develop and the founder mice (referred to as F0) were born: wild-type mice (Lmna^+/+), heterozygous mice (Lmna^G609G/+) and homozygous mice (Lmna^G609G/G609G). F1 heterozygous mice (Lmna^G609G/+) were obtained by crossing F0 heterozygous mice (Lmna^G609G/+). F2 homozygous mice (Lmna^G609G/G609G) were obtained by crossing F1 heterozygous mice (Lmna^G609G/+). We selected F2 mice (Lmna^+/+ and Lmna^G609G/G609G) for subsequent experiments. The mice were housed with a 12-h light/dark cycle (6:00 to 18:00) in a 20 °C and 40% humidity-controlled room. Water and rodent feed were fed ad libitum.
For UPCP injection, 14-day-old Lmna^G609G/G609G mice were injected intraperitoneally with either PBS or UPCP (20 mg kg^–1, every other day) and wild-type mice were injected with PBS. All phenotypic analyses were performed after 12 weeks of treatment with UPCP. Bodyweight and lifespan were monitored after UPCP treatment. The survival rate was analyzed by the Kaplan–Meier method. We only included mice that were of sufficient bodyweight at the start of the experiment, typically at least 80% of the average littermate weight of the same sex and genotype. All animals meeting criteria for inclusion were then divided randomly into three groups according to genotype (Lmna^+/+, Lmna^G609G/G609G-Mock and Lmna^G609G/G609G-UPCP).

PTBP1 = biological target: T1, PTBP1 (Homo sapiens, UniProt P26599); test: Microscale thermophoresis (MST) of UPCP and PTBP1; type: binding; details: Fig. 4l
T1 construct: made in house
Experimental: (§1) Cells were harvested and lysed in buffer A mixed with protease inhibitor cocktail tablet (Roche) after 48 h. […] The beads were washed three times using 1× Tris saline buffer (50 mM Tris-HCl (pH 7.4) and 150 mM NaCl)) for 8 min each. The bound proteins BUBR1 or PTBP1 were eluted with 3×Flag peptide (ApexBio) for 2 h at 4 °C. Finally, BUBR1 or PTBP1 was concentrated and recovered by using the Centrifugal Filters (Amicon Ultra).
(§2) His-UPCP was eluted with Imidazole eluent for 2 h at 4 °C and concentrated and recovered by using centrifugal filters (Amicon Ultra). Flag-BUBR1 or PTBP1 was purified as described in Affinity purification of Flag-tagged protein. The purified protein was diluted with 0.05% Tween-20 in PBS in to an appropriate concentration (His-UPCP: 50 nM, Flag-BUBR1: 25 μM, Flag-PTBP1: 45 μM). Then, His-UPCP was labeled with RED-Tris-NAT according to the manufacturer’s instructions (NanoTemper, MO-L018). Flag-BUBR1 or Flag-PTBP1 was diluted by 16 concentration gradients in turn and mixed with labeled protein (His-UPCP). The capillaries (MST NT115 premium) were loaded and the samples measured on the instrument (NanoTemper Monolith NT.115). Data were analyzed by MO.AffinityAnalysis and curves were drawn using Origin 2019.

BUBR1 = biological target: T2, BUBR1 (Homo sapiens, UniProt O60566); test: Microscale thermophoresis (MST) of UPCP and BUBR1; type: binding; details: Fig. 3d
T2 construct: made in house
Experimental: as §1, §2

T1 sequence (P26599 whole entry): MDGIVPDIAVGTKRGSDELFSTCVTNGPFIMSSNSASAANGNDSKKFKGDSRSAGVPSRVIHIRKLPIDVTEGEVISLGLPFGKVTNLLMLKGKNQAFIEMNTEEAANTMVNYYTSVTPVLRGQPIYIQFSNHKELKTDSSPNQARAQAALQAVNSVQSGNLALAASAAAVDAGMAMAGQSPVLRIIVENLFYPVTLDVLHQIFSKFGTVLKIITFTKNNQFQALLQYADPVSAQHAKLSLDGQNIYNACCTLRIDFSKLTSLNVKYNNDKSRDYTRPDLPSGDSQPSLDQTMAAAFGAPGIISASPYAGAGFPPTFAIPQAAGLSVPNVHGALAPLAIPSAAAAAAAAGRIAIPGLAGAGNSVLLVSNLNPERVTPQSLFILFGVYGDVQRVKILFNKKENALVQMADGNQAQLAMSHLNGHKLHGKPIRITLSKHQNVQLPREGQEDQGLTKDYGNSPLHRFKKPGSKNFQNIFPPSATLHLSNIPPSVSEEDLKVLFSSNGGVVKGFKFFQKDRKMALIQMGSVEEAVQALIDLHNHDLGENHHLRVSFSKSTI
T2 sequence (O60566 whole entry): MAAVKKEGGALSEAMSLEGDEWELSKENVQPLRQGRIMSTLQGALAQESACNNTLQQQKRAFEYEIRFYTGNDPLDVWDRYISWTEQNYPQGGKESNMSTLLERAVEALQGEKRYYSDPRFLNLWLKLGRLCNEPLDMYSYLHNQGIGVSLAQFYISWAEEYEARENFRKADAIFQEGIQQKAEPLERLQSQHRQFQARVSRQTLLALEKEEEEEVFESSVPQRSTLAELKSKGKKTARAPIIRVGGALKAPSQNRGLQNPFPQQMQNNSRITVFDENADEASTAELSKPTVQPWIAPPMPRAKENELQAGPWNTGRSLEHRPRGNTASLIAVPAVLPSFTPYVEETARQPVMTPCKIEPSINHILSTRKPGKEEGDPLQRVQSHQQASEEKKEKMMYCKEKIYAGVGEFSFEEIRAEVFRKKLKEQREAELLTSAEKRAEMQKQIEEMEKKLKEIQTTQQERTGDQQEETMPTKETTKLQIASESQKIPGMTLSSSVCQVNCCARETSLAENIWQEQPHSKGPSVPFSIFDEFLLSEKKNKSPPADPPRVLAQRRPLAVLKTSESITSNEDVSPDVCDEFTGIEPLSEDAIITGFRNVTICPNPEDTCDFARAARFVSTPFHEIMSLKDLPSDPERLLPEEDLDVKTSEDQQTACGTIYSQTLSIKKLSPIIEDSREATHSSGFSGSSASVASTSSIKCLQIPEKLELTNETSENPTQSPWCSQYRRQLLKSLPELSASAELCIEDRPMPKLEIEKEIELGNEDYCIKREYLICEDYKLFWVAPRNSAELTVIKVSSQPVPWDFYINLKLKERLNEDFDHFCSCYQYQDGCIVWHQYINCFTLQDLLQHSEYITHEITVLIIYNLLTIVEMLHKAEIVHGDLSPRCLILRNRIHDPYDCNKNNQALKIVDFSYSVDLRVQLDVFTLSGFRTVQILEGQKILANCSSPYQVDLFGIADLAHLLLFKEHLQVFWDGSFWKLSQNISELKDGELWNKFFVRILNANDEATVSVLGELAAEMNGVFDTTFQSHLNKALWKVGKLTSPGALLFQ

H-YGRKKRRQRRRYNLRSRTVLCGTCGQPADKASASGSGAQSPQNCSIM-OH (cysteines drawn unpaired) [UPCP, unique progerin C-terminal peptide]
SA-β-gal positive cells (HGADFN167 cells; HGADFN167, replicate 1): 24% | SA-β-gal positive cells (HGADFN167 cells; HGADFN167, replicate 2): 26% | SA-β-gal positive cells (HGADFN167 cells; HGADFN167, replicate 3): 20% | mean survival (Lmna^G609G/G609G mice; 20 mg kg^–1 i.p. every other day from 14 days of age, PBS 100.9 days): 118.6 days | median survival (Lmna^G609G/G609G mice; 20 mg kg^–1 i.p. every other day from 14 days of age, n = 15 UPCP vs n = 17 PBS (100 days)): 117 days | individual survival (Lmna^G609G/G609G mice; 20 mg kg^–1 i.p. every other day, female, individual 1 of 9): 103 days | individual survival (Lmna^G609G/G609G mice; 20 mg kg^–1 i.p. every other day, female, individual 2 of 9): 110 days | individual survival (Lmna^G609G/G609G mice; 20 mg kg^–1 i.p. every other day, female, individual 3 of 9): 110 days | individual survival (Lmna^G609G/G609G mice; 20 mg kg^–1 i.p. every other day, female, individual 4 of 9): 111 days | individual survival (Lmna^G609G/G609G mice; 20 mg kg^–1 i.p. every other day, female, individual 5 of 9): 117 days | individual survival (Lmna^G609G/G609G mice; 20 mg kg^–1 i.p. every other day, female, individual 6 of 9): 126 days | individual survival (Lmna^G609G/G609G mice; 20 mg kg^–1 i.p. every other day, female, individual 7 of 9): 128 days | individual survival (Lmna^G609G/G609G mice; 20 mg kg^–1 i.p. every other day, female, individual 8 of 9): 130 days | individual survival (Lmna^G609G/G609G mice; 20 mg kg^–1 i.p. every other day, female, individual 9 of 9): 136 days | individual survival (Lmna^G609G/G609G mice; 20 mg kg^–1 i.p. every other day, male, individual 1 of 6): 104 days | individual survival (Lmna^G609G/G609G mice; 20 mg kg^–1 i.p. every other day, male, individual 2 of 6): 106 days | individual survival (Lmna^G609G/G609G mice; 20 mg kg^–1 i.p. every other day, male, individual 3 of 6): 116 days | individual survival (Lmna^G609G/G609G mice; 20 mg kg^–1 i.p. every other day, male, individual 4 of 6): 118 days | individual survival (Lmna^G609G/G609G mice; 20 mg kg^–1 i.p. every other day, male, individual 5 of 6): 129 days | individual survival (Lmna^G609G/G609G mice; 20 mg kg^–1 i.p. every other day, male, individual 6 of 6): 135 days | increase in lifespan (median survival) (Lmna^G609G/G609G mice; 20 mg kg^–1 i.p. every other day, vs PBS-treated mice): 17% | Dose Response Curve, Response (PTBP1; Dose 5.625e-6, Err-Value 0.11619): 926.063 | Dose Response Curve, Response (PTBP1; Dose 1.125e-5, Err-Value 0.242742): 928.882 | Dose Response Curve, Response (PTBP1; Dose 2.25e-5, Err-Value 0.492149): 930.614 | Dose Response Curve, Response (PTBP1; Dose 1.10E-08, Err-Value 0.170403): 918.746 | Dose Response Curve, Response (PTBP1; Dose 1.37E-09, Err-Value 0.46814): 919.158 | Dose Response Curve, Response (PTBP1; Dose 1.41E-06, Err-Value 0.643872): 921.756 | Dose Response Curve, Response (PTBP1; Dose 1.76E-07, Err-Value 0.140462): 919.37 | Dose Response Curve, Response (PTBP1; Dose 2.20E-08, Err-Value 0.425445): 918.898 | Dose Response Curve, Response (PTBP1; Dose 2.75E-09, Err-Value 0.242938): 919.038 | Dose Response Curve, Response (PTBP1; Dose 2.81E-06, Err-Value 0.290637): 923.469 | Dose Response Curve, Response (PTBP1; Dose 3.52E-07, Err-Value 0.0904303): 919.901 | Dose Response Curve, Response (PTBP1; Dose 4.39E-08, Err-Value 0.556308): 918.749 | Dose Response Curve, Response (PTBP1; Dose 5.49E-09, Err-Value 0.120596): 918.787 | Dose Response Curve, Response (PTBP1; Dose 6.87E-10, Err-Value 0.420573): 919.333 | Dose Response Curve, Response (PTBP1; Dose 7.03E-07, Err-Value 0.21429): 920.338 | Dose Response Curve, Response (PTBP1; Dose 8.79E-08, Err-Value 0.322491): 918.54 | Dose Response Curve, Response (BUBR1; Dose 3.125e-6, Err-Value 0.164542): 928.56 | Dose Response Curve, Response (BUBR1; Dose 6.25e-6, Err-Value 0.285623): 930.678 | Dose Response Curve, Response (BUBR1; Dose 1.25e-5, Err-Value 0.150599): 932.492 | Dose Response Curve, Response (BUBR1; Dose 1.22E-08, Err-Value 0.206069): 919.933 | Dose Response Curve, Response (BUBR1; Dose 1.53E-09, Err-Value 0.561265): 919.392 | Dose Response Curve, Response (BUBR1; Dose 1.56E-06, Err-Value 0.465775): 925.424 | Dose Response Curve, Response (BUBR1; Dose 1.95E-07, Err-Value 0.135144): 920.487 | Dose Response Curve, Response (BUBR1; Dose 2.44E-08, Err-Value 0.0972446): 919.498 | Dose Response Curve, Response (BUBR1; Dose 3.05E-09, Err-Value 0.226695): 919.513 | Dose Response Curve, Response (BUBR1; Dose 3.81E-10, Err-Value 0.379307): 919.141 | Dose Response Curve, Response (BUBR1; Dose 3.91E-07, Err-Value 0.144905): 921.751 | Dose Response Curve, Response (BUBR1; Dose 4.88E-08, Err-Value 0.856541): 920.216 | Dose Response Curve, Response (BUBR1; Dose 6.10E-09, Err-Value 0.130907): 919.306 | Dose Response Curve, Response (BUBR1; Dose 7.63E-10, Err-Value 0.475828): 919.4 | Dose Response Curve, Response (BUBR1; Dose 7.81E-07, Err-Value 0.529145): 922.85 | Dose Response Curve, Response (BUBR1; Dose 9.77E-08, Err-Value 0.363098): 919.824
